Experimental data taken from patent publication US5395611A, “Phenolic amine depigmenting and antimelanoma agents” (The Governors of the University of Alberta, priority 1992, dated 1995).
Entries after “also recorded” stand apart in the source; their conditions may differ.

How the values were obtained:
mushroom tyrosinase = experiment: Enzyme kinetics for tyrosinase; format: biochemical
Procedure: (§1) Mushroom tyrosinase (400 units/mg) and plasma MAO (1000 units/gm) were obtained from Sigma Chemical Co. (St. Louis, Mo., USA). A reaction mixture consisted of a substrate of 7 to 8 different concentrations (40 to 500 μM for mushroom tyrosinase and 20 to 200 μM for MAO) and of either mushroom tyrosinase (2.5 μg) or MAO (10 μg) in 1.0 mL of 0.05M sodium phosphate buffer, pH 6.8 and 7.4 respectively. The reactions were carried out at 37° C. in a shaking water bath, and stopped by taking 100 μL of the reaction mixture and adding it to 900 μL of 0.4M HCLO4. The disappearance of substrate was followed using HPLC (high pressure liquid chromatography) Km and Vmax values were calculated from the Lineweaver-Burk plots.
^a mushroom tyrosinase; 11 unit/ml of tyrosinase was used. One enzyme
unit will cause an increase in A280 of 0.001 per min at pH 6.8 at
25° C. using Ltyrosine as substrate.

[1] = test system: plasma monoamine oxidase (MAO); experiment: Enzyme kinetics for monoamineoxidase (plasma MAO); format: biochemical
Procedure: as §1

in vivo = settings: mouse, ip
Procedure: 3:1-85 1972. In accordance with this Protocol, ten to fifteen mice were used in each test group. They were weighed and randomized at day one after s.c. inoculation of B16 melanoma cells. From day five, the phenolic melanin precursors were administered i.p. daily for nine days. The test compounds were dissolved in normal saline, and sterilized by heating to 100° C. for 2 minutes. […] They were administered j.p. with the following doses: 400 mg/Kg - 4-S-CAP; 200 to 300 mg/Kg - 4-S-CAP; and 200 to 1200 mg/Kg - N-Ac-4-S-CAP. A catalytic amount of L-dopa, 25 mg/Kg and antidecarboxylase, carbidopa, 400 mg/Kg, were also administered. Carbidopa was given one hour prior to L-dopa administration. DTIC (NSC 4538) was used as a control drug at a dose of 60 mg/Kg. Acute toxicity of 4-S-CP and 4-S-CAP was evaluated from 100 to 1600 mg/Kg.
The B16 mouse melanoma was maintained by s.c. inoculation of tumour cells into the back of C57BL7J mice (5 to 6 weeks, female). […] Briefly, excised tumours were homogenized in normal saline. The homogenized tumour cells were then passed through a sterile 80 mesh stainless steel screen, washed with normal saline, centrifuged (500 g. for 10 minutes) and resuspended in normal saline. Suspensions of viable melanoma cells at the concentration of 1×10^6 per 0.1 ml were inoculated s.c. into both the right and left inguinal areas of C57BL/6J mice (female, 5 to 6 weeks old, 18 to 20 gm).

B16 melanoma = experiment: In vivo growth inhibition of s.c. inoculated B16 melanoma; set-up: species or system mouse; settings: for % Gi (growth inhibition): 200 mg/Kg
Procedure: Briefly, excised tumours were homogenized in normal saline.
The in vivo antimelanoma effect of the compounds were evaluated by percent growth inhibition of inoculated tumour (% g.i.). The percent g.i. was computed from the mean tumour volume at day 12 or 13 of the experiments; i.e., 100× (1- treated group/control group). Tumour volume was calculated by the following formula:
tumour volume=long axis×(short axis)^2 ×1/2.

[2] = Urinary excretion after i.p. injection (metabolic assay); format: in vivo, mice; settings: 5.2 mg/mouse
Procedure: Fifteen mice randomly divided into three groups of five were injected i.p. with a test agent (300 mg/kg) dissolved in N saline solution. Group 1 were injected with 4-S-CAP, group 2 with N-Ac-4-S-CAP, group 3 were controls. The mice are kept in metabolic cages; their urine is collected 3, 8 and 24 hr after injection, and the 4-S-CAP and N-Ac-4-S-CAP content is measured by HPLC in a system consisting of a Waters 600E liquid chromatography, with a Bondapak C18 column (3.0×300 mm; particle size, 10 μm) and a Waters 460 electrochemical detector. Mobile phase: 0.1M potassium phosphate buffer, pH 2.1, containing 0.1 mM Na2 EDTA methanol, 80:20 (v/v); column temperature, 60° C.; flow rate 1.0 ml/min. Urine samples are hydrolysed with 0.1M HCl before assay, and the phenols are detected at 850 mV against an Ag/AgCl reference electrode.

black hair follicles = experiment: Depigmentation of new hair (eumelanin/PTCA content); format: in vivo, C57BL/6J black mice
Procedure: Female progeny were used in this testing when approximately 8 weeks old and weighing 17 grams.
Thirty mice were randomized into 6 groups of 5 (1 control and 1 for each compound). Starting on day 1, daily for 14 days the agent was injected i.p. or was infiltrated s.c. in an area where hair follicles had been plucked; the dose was 300 mg/kg body weight.
In the same 30 mice, hair follicles were harvested on day 22 (early telogen phase) and their eumelanin content analyzed. […] Briefly, a 10-mg hair sample is homogenized in water at a concentration of 10 mg/ml; the 200-μl homogenate is transferred to a screw-capped test tube, mixed with 1M H2 SO4 (800 μL) and oxidized with 3% KMnO4. The product, pyrrole-2,3,5-tricarboxylic acid (PTCA), is analyzed by HPLC with a UVL detector; samples are measured in duplicate. The eumelanin content is expressed as PTCA (ng/mg) against the PCTA content of BALB/c albino mice as control (≤10 ng/mg, the background value with our method, in which 1 ng corresponds roughly to a eumelanin content of 50 ng), and the degree of depigmentation is expressed as a percentage: (PTCA content of control sample minus PTCA content of experimental sample)/(PCTA content of control sample)×100.

melanocytes = experiment: Light and electron microscopy of follicular melanocytes; format: in vivo, mice; settings: i.p.
Procedure: In […] of 4 mice (1 control and 1 for each compound) were treated daily with the control or compound injected i.p. The compounds tested were 4-S-CAP, N-Ac-4-S-CAP and α-Me-4-S-CAP. Samples of skin and regrowing hair follicles were excised under brief general anaesthesia on day 10 (late anagen phase), fixed in Karnovsky's solution (2.5% glutaraldehyde and 2.5% paraformaldehyde in 011M cacodylate buffer), and refixed in 1% osmium tetroxide in cadodylate buffer. Tissues were stained en bloc with 1.5% uranyl acetate in o.1M veronal buffer for 30 min, dehydrated in graded ethanol solutions, embedded in epoxy resin, and sectioned with a Potter-Blum ultramicrotome MT II. Sections 1.0 μm thick were stained with methylene blue for light microscopy, thin sections were stained with led citrate for electron microscopy.

[3] = test system: plasma monoamine oxidase (MAO); settings: in words, prior knowledge; cited from earlier work
melanoma = settings: in words; cited from earlier work
black guinea pig skin = settings: topical application, cited from earlier work
follicular melanocytes = settings: in words; cited from earlier work
[4] = in words; cited from earlier work
[5] = acute toxicity, evaluated 100 to 1600 mg/Kg (Miura et al); cited from earlier work
[6] = s.c., 300 mg/kg daily for 14 days, hair day 22

NCCSc1ccc(O)cc1 [4-S-CAP, 4-S-cysteaminylphenol, reference compound]
Substrate for tyrosinase (mushroom tyrosinase; in words): substrate for both plasma MAO and tyrosinase
Km (mushroom tyrosinase; mushroom tyrosinase, pH 6.8, 37° C.): 117 µM
Substrate for plasma MAO ([1]; in words): substrate for both plasma MAO and tyrosinase
Km ([1]; plasma MAO, pH 7.4, 37° C.): 52.6 µM
MTD (in vivo): 200 to 300 mg/kg
% Gi (growth inhibition) (B16 melanoma; Experiment I): 54.0%
% Gi (growth inhibition) (B16 melanoma; Experiment II): 25.1%
Growth inhibition of B16 melanoma (B16 melanoma; in words): greater anti-melanoma effect at 200 mg/Kg than N-Ac-4-S-CAP
Urinary excretion of unchanged compound, amount ([2]; 3 h after i.p. injection): 0.399 ± 0.018 mg
Urinary excretion of unchanged compound, amount ([2]; 8 h after i.p. injection): 0.443 ± 0.023 mg
Urinary excretion of unchanged compound, amount ([2]; 24 h after i.p. injection): 0.458 ± 0.021 mg
dose excreted at 3 h ([2]; urine, ip, 300 mg/kg, 3 h after i.p. injection, read-out: Urinary excretion of unchanged compound, % of dose): 7.7%
dose excreted at 8 h ([2]; urine, ip, 300 mg/kg, 8 h after i.p. injection, read-out: Urinary excretion of unchanged compound, % of dose): 8.5%
dose excreted at 24 h ([2]; urine, ip, 300 mg/kg, 24 h after i.p. injection, read-out: Urinary excretion of unchanged compound, % of dose): 8.8%
Depigmentation (black hair follicles; i.p., 300 mg/kg daily for 14 days, hair day 22): 87%
Depigmentation of new growth of black hair follicles (black hair follicles; in words): i.p. administration induced more depigmentation than s.c.
Depigmentation (black hair follicles; [6]): 47%
PTCA Content (black hair follicles; [6]): 458.3 ± 107.6 ng/mg
Electron microscopy of melanocytes/melanosomes (melanocytes; 10 days): contained immature melanosomes at stages II and III
Light microscopy of hair follicles (melanocytes; day 10): the hair follicles contained functioning melanocytes and melanin pigments transferred into keratonocytes, although they were much sparser than in the controls
Substrate for plasma MAO (converted into aldehyde form) [3]: substrate for monoamineoxidase (MAO); also recorded: substrate not only for tyrosinase, but also for plasma monoamineoxidase (MAO)
Inhibition of melanoma growth (melanoma): exhibited inhibition of melanoma growth
Prolonging lifespan of melanoma-bearing mice (melanoma): potent agent in prolonging the lifespan of melanoma-bearing mice
Inflammatory changes of the skin (black guinea pig skin; guinea pigs): inflammatory changes of the skin of the guinea pigs was prominent
Depigmentation of black guinea pig skin (black guinea pig skin): demonstrated depigmenting properties
Effect on albino follicles (follicular melanocytes): no effect on the albino follicles
Effect on black hair follicles / black hair (follicular melanocytes): demonstrated cytotoxicity in the depigmentation of black hair follicles; also recorded: depigmentation of black hair as manifested by loss of functioning melanocytes
Hypotensive effect [4]: hypotensive
Lethal dose [5]: 400 mg/kg
